This passage reports selectivity ratio and CC50 results from ChEMBL document CHEMBL4038286, “Synthesis of camphecene derivatives using click chemistry methodology and study of their antiviral activity” (Bioorg Med Chem Lett, 2017).

Data set [1] is described as follows: Selectivity index, ratio of CTD50 for MDCK cells to ED50 for Influenza A virus (A/Puerto Rico/8/34(H1N1)). Type of data set: toxicity. Particulars: dog, read-out: Selectivity Index.
The nature of data set [2]: Cytotoxicity against MDCK cells assessed as cell death by MTT assay. Type of data set: cell-based, Canis lupus familiaris. The note with it: dog, read-out: CTD50.

For `CCOP(=O)(CCCCn1cc(COCC/N=C2\C[C@H]3CC[C@]2(C)C3(C)C)nn1)OCC`, in data set [1], the selectivity ratio was greater than 2. Besides, in data set [2], the CC50 was greater than 641 µM.

In the case of `CNCc1cn(CC/N=C2\C[C@H]3CC[C@]2(C)C3(C)C)nn1`, the selectivity ratio in data set [1] is less than 2. Moreover, the CC50 in data set [2] amounted to 195 µM.

As for `CC1(C)[C@@H]2CC[C@@]1(C)/C(=N/CCOCc1cn(CCO)nn1)C2`, the selectivity ratio in data set [1] is greater than 19. Also, in data set [2], the CC50 was greater than 938 µM.

For `CC(N)[C@@H]1C[C@H]2CC[C@]1(C)C2` (stereo not given in full), the selectivity ratio in data set [1] worked out at 6. Besides, the CC50 in data set [2] turned out to be 1110 µM.

As for `CC(C)(O)Cc1cn(CC/N=C2\C[C@H]3CC[C@]2(C)C3(C)C)nn1`, the selectivity ratio in data set [1] is greater than 31. Besides, the CC50 in data set [2] was greater than 987 µM.

Turning to `CC1(C)[C@@H]2CC[C@@]1(C)/C(=N/CCOCc1cn(-c3ccccc3)nn1)C2`, the selectivity ratio in data set [1] was found to be 2. Also, the CC50 in data set [2] worked out at 138 µM.

Regarding `CCOC(=O)C(C)(Cc1cn(CC/N=C2\C[C@H]3CC[C@]2(C)C3(C)C)nn1)P(=O)(OCC)OCC` (stereo not given in full), the selectivity ratio in data set [1] is 2. Besides, the CC50 in data set [2] is greater than 555 µM.

Take `C#CCOCC/N=C1\C[C@H]2CC[C@]1(C)C2(C)C`: in data set [1], the selectivity ratio was 2. The CC50 in data set [2] amounted to 971 µM.

On to `CC1(C)[C@@H]2CC[C@@]1(C)/C(=N/CCn1cc([Si](C)(C)C)nn1)C2`, for which, in data set [1], the selectivity ratio was less than 1. Also, the CC50 in data set [2] was 32 µM.

`CC1(C)[C@@H]2CC[C@@]1(C)/C(=N\CCOCc1cn(CC/N=C3\C[C@H]4CC[C@]3(C)C4(C)C)nn1)C2`: the selectivity ratio in data set [1] stood at 1. For the same compound, the CC50 in data set [2] was 117 µM.

On to `CCCCc1cn(CC/N=C2\C[C@H]3CC[C@]2(C)C3(C)C)nn1`, for which the selectivity ratio in data set [1] was 5. In addition, the CC50 in data set [2] was found to be 303 µM.

Regarding `CC1(C)[C@@H]2CC[C@@]1(C)/C(=N/CCn1cc(CCO)nn1)C2`, the selectivity ratio in data set [1] was greater than 19. In data set [2], the CC50 was greater than 1030 µM.

`CC(C)(C)OC(=O)Cn1cc(COCC/N=C2\C[C@H]3CC[C@]2(C)C3(C)C)nn1`: the selectivity ratio in data set [1] came out at 8. In addition, the CC50 in data set [2] came out at 204 µM.

Turning to `COCCNCCc1cn(CC/N=C2\C[C@H]3CC[C@]2(C)C3(C)C)nn1`, the selectivity ratio in data set [1] is 34. Also, the CC50 in data set [2] amounted to 865 µM.

For the compound `CC1(C)[C@@H]2CC[C@@]1(C)/C(=N/CCn1cc(CCN3CCOCC3)nn1)C2`, the selectivity ratio in data set [1] is greater than 18. Also, the CC50 in data set [2] is greater than 836 µM.

As for `CCOP(=O)(OCC)C(Cc1cn(CC/N=C2\C[C@H]3CC[C@]2(C)C3(C)C)nn1)P(=O)(OCC)OCC`, in data set [1], the selectivity ratio was found to be 2. For the same compound, the CC50 in data set [2] amounted to 92 µM.

Regarding `CC1(C)[C@@H]2CC[C@@]1(C)/C(=N/CCN=[N+]=[N-])C2`, the selectivity ratio in data set [1] was greater than 3. In addition, the CC50 in data set [2] was greater than 1360 µM.

For `CC1(C)[C@@H]2CC[C@@]1(C)/C(=N/CCn1cc(CO)nn1)C2`, the selectivity ratio in data set [1] was 2. Besides, the CC50 in data set [2] was greater than 1090 µM.

On to `NC12CC3CC(CC(C3)C1)C2` [AMANTADINE], for which the selectivity ratio in data set [1] came to 4. Further, in data set [2], the CC50 came to 266 µM.

For the compound `CC(N)C12CC3CC(CC(C3)C1)C2` (stereo not given) [RIMANTADINE], the selectivity ratio in data set [1] worked out at 5. Further, the CC50 in data set [2] was 344 µM.
